# Experimental data published in patent publication US20040053898A1, “Combination preparation with a erbeta selective estrogen and serm or antiestorgen” (priority 2000, published 2004).
# How the values were obtained:
# [1] = test system: human estrogen receptor α (ERα) / human estrogen receptor β (ERβ); assay: binding to human estrogen receptors α and β; conditions: human ERα than human ERβ
# [2] = test system: estrogen receptor preparations of rat prostates and rat uteri; assay: estrogen receptor binding, 3H-estradiol competition, rat prostate versus rat uterus cytosol; conditions: rat prostate ER versus rat uterus ER
# Procedure: The binding affinity of the new selective estrogens (ERβ-ligands) and SERMs was tested in competitive experiments with use of 3H-estradiol as a ligand in estrogen receptor preparations of rat prostates and rat uteri.
# [3] = test system: ERβ compared to ERα; conditions: in-vitro receptor binding test; cited from earlier work
structure (smiles),measurement,setting,value
C[C@]12CC[C@@H]3c4ccc(O)cc4CC[C@H]3[C@@H]1C[C@@H](O)C2=O [16α-hydroxyestrone],binding to human ERα relative to human ERβ (fold better),[1],3 ×
same,RBA value in rat prostate estrogen receptor relative to RBA value in rat uterus estrogen receptor (fold better),[2],5 ×
O=c1c(-c2ccc(O)cc2)coc2cc(O)cc(O)c12 [genisteine],preference for ERβ compared to ERα,[3],ERβ-selectivity
